One assay deals with Large T antigen (Simian virus 40, UniProt P03070). The format is functional, Betapolyomavirus macacae.
In assay [1] the target is Beta-2 adrenergic receptor (Homo sapiens, UniProt P07550). The assay is described as follows: beta2AR agonists driving receptor internalization, dose response, cell-based, FAP fluorogen, flow cytometry, cherry pick 1 (AID 588763). The assay is classed as functional.
Assay [2] addresses T1, Rac GTPase-activating protein 1 (Homo sapiens, UniProt Q9H0H5).
T1 sequence (Q9H0H5 whole entry): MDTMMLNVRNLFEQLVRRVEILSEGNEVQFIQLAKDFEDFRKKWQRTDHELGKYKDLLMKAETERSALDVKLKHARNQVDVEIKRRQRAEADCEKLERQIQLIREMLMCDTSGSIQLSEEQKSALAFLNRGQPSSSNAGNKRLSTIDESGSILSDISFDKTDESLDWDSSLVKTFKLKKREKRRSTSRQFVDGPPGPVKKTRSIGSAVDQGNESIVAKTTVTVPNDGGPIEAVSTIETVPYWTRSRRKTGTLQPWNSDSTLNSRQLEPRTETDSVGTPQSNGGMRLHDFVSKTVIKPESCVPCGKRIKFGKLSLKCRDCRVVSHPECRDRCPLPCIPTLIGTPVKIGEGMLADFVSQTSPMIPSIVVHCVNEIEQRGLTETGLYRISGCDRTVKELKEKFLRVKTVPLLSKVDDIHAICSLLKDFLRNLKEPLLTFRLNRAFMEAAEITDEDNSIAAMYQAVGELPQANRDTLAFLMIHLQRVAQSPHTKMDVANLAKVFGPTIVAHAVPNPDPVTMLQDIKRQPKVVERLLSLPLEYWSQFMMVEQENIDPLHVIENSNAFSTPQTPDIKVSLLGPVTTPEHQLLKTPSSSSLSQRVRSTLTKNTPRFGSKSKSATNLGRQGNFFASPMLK
Briefly: MgcRacGAP GTPase-activating activity inhibitors, confirmation, biochemical, ADP Hunter fluorescence, primary and confirmatory (AID 624330). The assay is classed as functional.

A short description of assay [3]: NIH-3T3 fibroblast cytotoxicity, dose response, cytotoxicity control, cell-based, fluorescence, Alamar Blue, secondary assay (AID 2327).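 Also: NIH-3T3 mouse fibroblasts cultured with fluconazole at 8 µg/mL.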 The assay is classed as functional.
In assay [4] the target is ATP-dependent molecular chaperone HSP82 (Candida albicans (strain WO-1) (Yeast), UniProt C4YTQ8). Briefly: loss of DOC-induced GRE-beta-galactosidase reporter signal, dose response, Hsp90 inhibitor project, S. cerevisiae, luminescence (AID 2400).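 Also: beta-galactosidase luminescence from glucocorticoid response element reporter as proxy for Hsp90 function; inhibitor potency where signal loss means Hsp90 inhibition.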 The format is functional, cell-based.
Assay [5] deals with T2, Serine/threonine-protein phosphatase (Candida dubliniensis (strain CD36 / CBS 7987 / NCPF 3949 / NRRLY-17841) (Yeast), UniProt B9W6M3).
T2 sequence (B9W6M3 whole entry): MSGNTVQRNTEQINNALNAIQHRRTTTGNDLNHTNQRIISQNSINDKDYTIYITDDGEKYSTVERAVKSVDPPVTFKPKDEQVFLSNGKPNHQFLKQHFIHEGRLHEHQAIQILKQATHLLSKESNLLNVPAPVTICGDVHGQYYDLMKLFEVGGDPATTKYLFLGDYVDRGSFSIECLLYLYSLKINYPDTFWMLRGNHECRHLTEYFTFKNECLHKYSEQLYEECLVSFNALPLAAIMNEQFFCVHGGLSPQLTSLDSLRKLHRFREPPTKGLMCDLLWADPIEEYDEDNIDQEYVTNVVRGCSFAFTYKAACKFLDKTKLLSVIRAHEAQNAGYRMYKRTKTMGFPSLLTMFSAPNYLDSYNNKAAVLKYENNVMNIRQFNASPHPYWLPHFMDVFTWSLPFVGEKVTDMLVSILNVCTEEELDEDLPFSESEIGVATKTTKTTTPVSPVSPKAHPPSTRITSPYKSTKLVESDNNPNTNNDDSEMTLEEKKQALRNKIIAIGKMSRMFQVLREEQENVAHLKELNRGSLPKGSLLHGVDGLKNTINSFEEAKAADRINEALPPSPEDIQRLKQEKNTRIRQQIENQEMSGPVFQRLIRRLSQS
Briefly: calcineurin pathway inhibitors in yeast reporter, dose response, S. cerevisiae, CDRE-lacZ, luminescence, secondary (AID 2388).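 Also: yeast reporter cells carrying a calcineurin-responsive lacZ construct stimulated with calcium chloride; luminescent beta-galactosidase reporter signal in whole cells rather than isolated phosphatase activity; potency for inhibition where a drop in reporter signal means calcineurin blockade.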 The assay is classed as functional, cell-based.

Assay [6] in a line: C. albicans growth with fluconazole, confirmation, fluorescence, retest (AID 2467). The format is functional, cell-based.
Assay [7] addresses T3, Fatty acid synthase (Homo sapiens, UniProt P49327). The assay is described as follows: FAS thioesterase domain inhibitors, dose response, biochemical, endpoint fluorescence intensity, uHTS hits (AID 624327).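 Also: fluorescence from hydrolysis of an O-methyl fluorescein acyl ester substrate by the enzyme.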 The format is functional.
Assay [8] concerns the target T3, Fatty acid synthase. The assay is described as follows: FAS thioesterase domain inhibitors, dose response, biochemical, kinetic fluorescence intensity (AID 624326).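 Also: rate of fluorescence rise from hydrolysis of a fluorogenic O-methyl fluorescein ester substrate.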 The format is functional.
The target of the next assay is T4, Coagulation factor XII (Homo sapiens, UniProt P00748).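 Also: activated factor XIIa alpha cleaving a fluorogenic AMC peptide substrate; inhibitor potency from loss of enzyme activity.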
T4 sequence (P00748 whole entry): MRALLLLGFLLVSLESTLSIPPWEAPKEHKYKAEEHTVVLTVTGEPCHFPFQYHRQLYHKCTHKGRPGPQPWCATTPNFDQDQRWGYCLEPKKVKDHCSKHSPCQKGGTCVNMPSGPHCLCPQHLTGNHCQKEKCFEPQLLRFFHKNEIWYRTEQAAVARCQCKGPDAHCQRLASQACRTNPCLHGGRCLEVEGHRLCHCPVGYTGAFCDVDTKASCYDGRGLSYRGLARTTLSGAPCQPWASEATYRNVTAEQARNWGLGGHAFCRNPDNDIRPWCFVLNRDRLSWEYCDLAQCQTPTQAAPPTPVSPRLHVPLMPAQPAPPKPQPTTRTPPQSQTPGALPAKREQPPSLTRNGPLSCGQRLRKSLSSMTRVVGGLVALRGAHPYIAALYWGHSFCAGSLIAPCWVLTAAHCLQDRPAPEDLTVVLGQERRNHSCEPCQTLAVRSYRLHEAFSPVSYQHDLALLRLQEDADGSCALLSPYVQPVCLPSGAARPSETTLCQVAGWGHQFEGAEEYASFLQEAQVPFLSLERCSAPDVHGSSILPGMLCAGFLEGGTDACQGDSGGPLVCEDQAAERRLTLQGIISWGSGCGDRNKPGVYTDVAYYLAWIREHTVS
The format is functional.

Assay [9] addresses Protein-tyrosine kinase 2-beta (Homo sapiens, UniProt Q14289).
Another assay concerns the target Melanocortin receptor 4 (Homo sapiens, UniProt P32245). The format is functional, cell-based.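 Also: Cell-based assay with luminescence read-out, confirmatory dose-response testing for agonist activity of biased ligands at MC4R; human U2OS cells with tagged receptor and beta-arrestin; potency of agonists that increase receptor coupling to beta-arrestin.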
Assay [10] addresses T5, Apoptotic protease-activating factor 1 (Homo sapiens, UniProt O14727).
T5 sequence (O14727 whole entry): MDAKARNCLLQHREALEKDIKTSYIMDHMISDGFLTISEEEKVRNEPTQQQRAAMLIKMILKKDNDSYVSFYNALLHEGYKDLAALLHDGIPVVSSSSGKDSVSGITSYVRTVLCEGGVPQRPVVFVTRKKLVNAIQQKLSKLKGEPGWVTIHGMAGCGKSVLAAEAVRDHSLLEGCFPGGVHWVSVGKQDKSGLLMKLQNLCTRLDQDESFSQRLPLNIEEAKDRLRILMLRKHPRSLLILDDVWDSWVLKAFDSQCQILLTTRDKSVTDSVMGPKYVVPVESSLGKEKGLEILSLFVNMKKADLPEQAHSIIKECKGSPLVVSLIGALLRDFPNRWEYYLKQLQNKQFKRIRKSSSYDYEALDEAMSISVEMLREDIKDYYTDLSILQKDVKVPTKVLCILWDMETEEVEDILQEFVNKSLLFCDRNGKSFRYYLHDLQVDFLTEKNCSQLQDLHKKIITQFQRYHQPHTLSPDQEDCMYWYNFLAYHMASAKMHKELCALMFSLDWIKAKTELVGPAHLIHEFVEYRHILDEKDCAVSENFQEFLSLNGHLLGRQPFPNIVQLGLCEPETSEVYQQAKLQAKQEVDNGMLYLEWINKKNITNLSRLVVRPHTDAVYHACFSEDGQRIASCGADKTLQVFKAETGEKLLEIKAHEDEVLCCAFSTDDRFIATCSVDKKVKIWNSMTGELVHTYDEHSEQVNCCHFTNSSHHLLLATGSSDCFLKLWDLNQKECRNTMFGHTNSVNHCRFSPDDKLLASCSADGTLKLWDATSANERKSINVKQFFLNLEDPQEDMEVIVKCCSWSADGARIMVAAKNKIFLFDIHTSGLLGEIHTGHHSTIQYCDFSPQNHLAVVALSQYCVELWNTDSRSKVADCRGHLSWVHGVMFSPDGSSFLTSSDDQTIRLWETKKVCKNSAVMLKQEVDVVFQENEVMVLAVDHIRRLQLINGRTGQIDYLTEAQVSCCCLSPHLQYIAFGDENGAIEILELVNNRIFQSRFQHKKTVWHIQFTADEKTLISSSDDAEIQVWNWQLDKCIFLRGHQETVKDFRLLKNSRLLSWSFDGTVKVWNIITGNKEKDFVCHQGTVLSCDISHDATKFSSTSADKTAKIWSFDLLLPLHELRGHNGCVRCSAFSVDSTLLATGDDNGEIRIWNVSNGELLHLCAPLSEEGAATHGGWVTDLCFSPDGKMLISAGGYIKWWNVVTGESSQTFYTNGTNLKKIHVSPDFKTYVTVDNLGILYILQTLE
The assay is described as follows: SAR analysis of small molecule Activators of Apaf-1 in a Fluorescent assay. The assay is classed as functional. As to conditions: read-out: EC50_Mean.

The next assay relates to P388/ADR. The assay is described as follows: cells. The assay is classed as functional. As to conditions: Mus musculus.
The subject of the next assay is SN12K1. Briefly: cells. The assay is classed as functional. As to conditions: Homo sapiens.
The subject of a further assay is P388. The assay is described as follows: cells. As to conditions: Mus musculus. The assay is classed as functional.
Another assay deals with HEK293. Briefly: inhibitors of LMP1-driven NF-kB reporter, dose response, cell-based, HEK293, luciferase, cherry-pick (AID 588343). The following applies: Homo sapiens. The format is functional.

The results in this text go back to ChEMBL document CHEMBL1201862, “PubChem BioAssay data set” (2004).

Active and inactive are the calls of the source.
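For EC50 Mean in this document: caspase-3 cleavage of fluorogenic Rh110 DEVD substrate downstream of apoptosome activation.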

Sequence of Beta-2 adrenergic receptor (P07550 whole entry): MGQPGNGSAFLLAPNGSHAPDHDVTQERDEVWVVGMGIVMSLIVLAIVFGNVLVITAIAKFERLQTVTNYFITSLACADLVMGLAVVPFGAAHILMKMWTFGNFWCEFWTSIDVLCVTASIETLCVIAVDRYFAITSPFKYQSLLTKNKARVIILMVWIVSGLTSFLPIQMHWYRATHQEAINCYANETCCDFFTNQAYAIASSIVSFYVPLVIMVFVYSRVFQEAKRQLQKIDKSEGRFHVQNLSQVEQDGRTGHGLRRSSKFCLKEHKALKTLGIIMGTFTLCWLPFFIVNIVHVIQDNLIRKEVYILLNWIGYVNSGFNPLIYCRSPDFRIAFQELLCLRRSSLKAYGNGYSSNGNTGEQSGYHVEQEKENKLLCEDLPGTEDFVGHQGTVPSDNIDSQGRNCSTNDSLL
Sequence of ATP-dependent molecular chaperone HSP82 (C4YTQ8 whole entry): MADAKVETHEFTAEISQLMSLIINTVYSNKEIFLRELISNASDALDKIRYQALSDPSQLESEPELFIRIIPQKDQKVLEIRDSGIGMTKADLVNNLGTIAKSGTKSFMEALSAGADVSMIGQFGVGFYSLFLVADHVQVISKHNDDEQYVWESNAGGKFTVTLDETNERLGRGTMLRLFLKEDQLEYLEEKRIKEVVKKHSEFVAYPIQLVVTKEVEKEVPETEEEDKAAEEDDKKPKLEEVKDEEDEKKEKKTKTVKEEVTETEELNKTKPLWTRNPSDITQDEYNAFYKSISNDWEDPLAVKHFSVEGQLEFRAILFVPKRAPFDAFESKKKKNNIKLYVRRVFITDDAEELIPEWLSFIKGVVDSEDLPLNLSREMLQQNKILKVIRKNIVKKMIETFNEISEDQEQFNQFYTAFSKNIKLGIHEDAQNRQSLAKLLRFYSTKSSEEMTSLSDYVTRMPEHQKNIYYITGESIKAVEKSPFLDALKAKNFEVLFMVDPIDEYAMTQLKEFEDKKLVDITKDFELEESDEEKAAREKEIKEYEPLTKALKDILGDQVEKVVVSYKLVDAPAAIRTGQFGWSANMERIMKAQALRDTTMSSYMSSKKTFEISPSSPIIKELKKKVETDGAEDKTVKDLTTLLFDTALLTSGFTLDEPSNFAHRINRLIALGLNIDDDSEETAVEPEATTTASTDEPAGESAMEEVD
T3 sequence (P49327 whole entry, the tested form may be a part): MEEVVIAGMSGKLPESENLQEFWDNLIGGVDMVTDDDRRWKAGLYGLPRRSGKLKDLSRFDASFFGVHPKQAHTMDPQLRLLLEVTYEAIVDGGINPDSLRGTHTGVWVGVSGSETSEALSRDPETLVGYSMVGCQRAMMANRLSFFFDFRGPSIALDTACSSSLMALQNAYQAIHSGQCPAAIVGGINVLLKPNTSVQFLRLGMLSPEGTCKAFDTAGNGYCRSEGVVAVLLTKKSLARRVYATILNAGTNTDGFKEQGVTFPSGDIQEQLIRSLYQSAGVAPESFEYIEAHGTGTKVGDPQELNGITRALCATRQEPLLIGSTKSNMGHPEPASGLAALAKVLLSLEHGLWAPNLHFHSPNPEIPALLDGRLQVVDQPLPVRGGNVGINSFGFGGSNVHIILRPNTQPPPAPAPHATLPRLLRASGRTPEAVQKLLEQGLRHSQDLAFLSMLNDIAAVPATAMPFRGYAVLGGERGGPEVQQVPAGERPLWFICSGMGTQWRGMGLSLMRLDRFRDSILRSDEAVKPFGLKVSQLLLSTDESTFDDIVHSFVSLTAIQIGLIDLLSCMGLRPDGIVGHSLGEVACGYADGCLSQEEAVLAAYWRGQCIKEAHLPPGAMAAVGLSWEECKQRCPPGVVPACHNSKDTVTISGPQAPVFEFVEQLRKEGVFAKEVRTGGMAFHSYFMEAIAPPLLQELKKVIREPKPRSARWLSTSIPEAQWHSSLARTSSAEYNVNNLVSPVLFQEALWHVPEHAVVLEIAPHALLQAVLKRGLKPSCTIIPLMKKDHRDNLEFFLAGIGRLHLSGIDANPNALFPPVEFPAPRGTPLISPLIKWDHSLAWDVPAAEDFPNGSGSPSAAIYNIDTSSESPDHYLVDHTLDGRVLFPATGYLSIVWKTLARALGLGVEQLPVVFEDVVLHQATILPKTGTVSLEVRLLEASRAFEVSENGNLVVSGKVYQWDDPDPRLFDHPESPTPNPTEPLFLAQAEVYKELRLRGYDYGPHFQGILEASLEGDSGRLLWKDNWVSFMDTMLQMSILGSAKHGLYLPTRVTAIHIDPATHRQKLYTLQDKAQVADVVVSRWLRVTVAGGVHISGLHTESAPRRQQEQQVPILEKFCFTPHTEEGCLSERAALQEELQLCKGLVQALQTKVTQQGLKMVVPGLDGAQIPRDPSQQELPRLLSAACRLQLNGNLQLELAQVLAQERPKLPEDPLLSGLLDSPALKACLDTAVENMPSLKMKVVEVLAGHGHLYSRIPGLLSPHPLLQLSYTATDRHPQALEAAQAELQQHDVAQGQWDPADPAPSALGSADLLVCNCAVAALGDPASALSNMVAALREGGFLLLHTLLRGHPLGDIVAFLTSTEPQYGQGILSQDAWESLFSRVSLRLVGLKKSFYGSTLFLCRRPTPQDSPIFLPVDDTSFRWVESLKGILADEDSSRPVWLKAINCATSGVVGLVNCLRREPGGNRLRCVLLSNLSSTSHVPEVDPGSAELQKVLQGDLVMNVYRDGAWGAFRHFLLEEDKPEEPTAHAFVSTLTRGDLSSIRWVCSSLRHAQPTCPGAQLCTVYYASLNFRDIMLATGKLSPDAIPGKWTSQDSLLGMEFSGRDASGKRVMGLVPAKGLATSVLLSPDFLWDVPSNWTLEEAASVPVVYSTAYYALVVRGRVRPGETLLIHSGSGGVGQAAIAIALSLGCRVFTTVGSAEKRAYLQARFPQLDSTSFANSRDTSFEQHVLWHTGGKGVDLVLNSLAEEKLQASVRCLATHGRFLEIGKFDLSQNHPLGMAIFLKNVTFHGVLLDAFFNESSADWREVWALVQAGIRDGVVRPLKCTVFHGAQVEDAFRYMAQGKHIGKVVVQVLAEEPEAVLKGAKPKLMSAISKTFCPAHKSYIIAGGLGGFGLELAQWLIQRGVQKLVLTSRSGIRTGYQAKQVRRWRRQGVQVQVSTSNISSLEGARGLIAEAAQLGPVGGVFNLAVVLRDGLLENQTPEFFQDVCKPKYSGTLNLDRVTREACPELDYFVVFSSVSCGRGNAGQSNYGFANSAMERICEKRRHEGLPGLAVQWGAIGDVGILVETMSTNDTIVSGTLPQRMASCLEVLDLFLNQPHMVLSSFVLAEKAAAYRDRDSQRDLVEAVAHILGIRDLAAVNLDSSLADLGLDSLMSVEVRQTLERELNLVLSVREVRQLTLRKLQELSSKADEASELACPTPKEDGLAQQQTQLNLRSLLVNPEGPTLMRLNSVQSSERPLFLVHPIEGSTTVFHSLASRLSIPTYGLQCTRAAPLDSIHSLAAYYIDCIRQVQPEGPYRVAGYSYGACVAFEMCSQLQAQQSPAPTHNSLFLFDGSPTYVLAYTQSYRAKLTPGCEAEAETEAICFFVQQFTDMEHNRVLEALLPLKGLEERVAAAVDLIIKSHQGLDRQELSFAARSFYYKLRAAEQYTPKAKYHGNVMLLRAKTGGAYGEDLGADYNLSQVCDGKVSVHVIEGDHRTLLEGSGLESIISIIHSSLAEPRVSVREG
Sequence of Protein-tyrosine kinase 2-beta (Q14289 whole entry): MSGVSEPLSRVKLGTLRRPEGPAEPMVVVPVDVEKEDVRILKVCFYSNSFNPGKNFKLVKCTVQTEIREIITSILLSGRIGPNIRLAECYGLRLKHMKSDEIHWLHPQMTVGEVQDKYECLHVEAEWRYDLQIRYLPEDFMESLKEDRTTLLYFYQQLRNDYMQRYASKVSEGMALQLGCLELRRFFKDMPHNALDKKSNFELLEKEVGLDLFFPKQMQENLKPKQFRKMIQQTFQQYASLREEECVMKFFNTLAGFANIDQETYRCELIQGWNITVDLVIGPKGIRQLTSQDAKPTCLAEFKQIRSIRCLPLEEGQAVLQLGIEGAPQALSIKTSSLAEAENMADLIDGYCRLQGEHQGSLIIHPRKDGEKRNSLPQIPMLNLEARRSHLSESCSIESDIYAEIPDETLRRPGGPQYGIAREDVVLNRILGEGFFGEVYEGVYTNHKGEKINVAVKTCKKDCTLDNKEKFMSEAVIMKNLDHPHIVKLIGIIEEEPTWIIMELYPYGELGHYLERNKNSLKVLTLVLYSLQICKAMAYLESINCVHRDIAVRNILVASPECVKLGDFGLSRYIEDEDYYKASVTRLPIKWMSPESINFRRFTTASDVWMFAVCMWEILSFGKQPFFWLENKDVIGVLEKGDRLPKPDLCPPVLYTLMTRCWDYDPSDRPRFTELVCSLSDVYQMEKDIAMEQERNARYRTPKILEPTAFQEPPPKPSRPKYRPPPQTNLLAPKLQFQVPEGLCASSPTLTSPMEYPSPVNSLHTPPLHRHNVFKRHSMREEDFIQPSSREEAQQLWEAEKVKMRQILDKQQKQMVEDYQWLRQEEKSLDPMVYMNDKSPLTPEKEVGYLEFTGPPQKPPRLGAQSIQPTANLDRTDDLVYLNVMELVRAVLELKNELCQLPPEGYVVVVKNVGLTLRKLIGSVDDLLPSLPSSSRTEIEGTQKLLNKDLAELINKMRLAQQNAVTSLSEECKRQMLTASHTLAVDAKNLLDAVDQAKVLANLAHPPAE
Sequence of Melanocortin receptor 4 (P32245 whole entry): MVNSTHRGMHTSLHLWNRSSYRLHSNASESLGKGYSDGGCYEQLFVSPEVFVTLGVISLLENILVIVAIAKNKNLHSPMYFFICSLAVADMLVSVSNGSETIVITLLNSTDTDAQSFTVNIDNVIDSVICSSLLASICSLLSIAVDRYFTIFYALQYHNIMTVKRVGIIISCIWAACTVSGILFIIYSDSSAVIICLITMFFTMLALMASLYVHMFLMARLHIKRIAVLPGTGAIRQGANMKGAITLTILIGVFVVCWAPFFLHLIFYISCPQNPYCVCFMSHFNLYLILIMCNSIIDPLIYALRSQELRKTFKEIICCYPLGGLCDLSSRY

For orientation: IC50 means the concentration needed to halve the response being measured. On to `CCOC(=O)C1(C)C=C(Nc2ccc(O)cc2)C(=O)N1c1ccc(O)cc1` (configuration not stated), for which the IC50 at Large T antigen is 8.11 µM (active); in assay [2] it was 21.4 µM (active). Further, in [1], the EC50 was 1.09 µM (active).

Consider `O=C(Cc1nc2ccccc2s1)c1ccc(O)cc1O`, for which the EC50 in assay [3] was > 160 µM (inactive); in assay [4], > 160 µM (inactive); in assay [5], > 180 µM (inactive); in assay [6], 0.691 µM (active).

Consider `COc1cc2ncc(S(=O)(=O)c3ccccc3)c(N3CCCC(C)C3)c2cc1OC` (configuration not stated), for which the EC50 in assay [1] is 1.07 µM (active). The IC50 at Fatty acid synthase [7] was 4.78 µM (active); at Fatty acid synthase [8], 3.13 µM (active).

For the molecule `O=c1oc(-c2ccc(Br)o2)nc2ccccc12`, the figures for the IC50 (on Coagulation factor XII; in [9]) were > 50 µM (inactive) and 2.66 µM (active), respectively.

As to `N#C/C(=C\c1ccc(N2CCOCC2)cc1)c1ccccc1`, the EC50 is > 150 µM (inactive) in [3], 68.9 µM (active) in assay [4], > 180 µM (inactive) in assay [5] and 0.49 µM (active) in assay [6].

Consider `NS(=O)(=O)c1ccc(NNC(=O)c2sccc2Cl)cc1`, for which, on Coagulation factor XII, the IC50 was > 50 µM (inactive).

As for `NC(c1ccccc1)c1csc(NC(=O)Nc2ccccc2Oc2ccccc2)n1` (configuration not stated), the EC50 at Melanocortin receptor 4 is > 89.2 µM (inactive).

Regarding `O=C(COc1ccccc1F)N1c2ccccc2CCc2ccccc21`, the EC50 in [1] is 1.6 µM (active).

On to `Cc1ccc(N2C(=O)CC3(CC(c4ccc(Br)cc4)=NO3)C2=O)cc1` (configuration not stated), for which, in assay [10], the EC50 was > 100 µM (inactive).

The GI50 is the concentration at which growth is held to half of that of the control. For the molecule `COCCOCOc1ccc(OCc2ccccc2)cc1`, the GI50 in the assay on P388/ADR was 24 µM (inactive); with SN12K1, > 100 µM (inactive); in the assay with P388, 31.3 µM (inactive).

On to `O=C(O)[C@@H]1COC(c2ccccc2C(F)(F)F)=N1`, for which, in assay [10], the EC50 was > 100 µM (inactive).

Take `COc1cc2c(cc1Oc1ccc(OC)c3c1CC1c4c(cc(OC)c(OC)c4-3)CCN1C)CC1c3c(cc(OC)c(OC)c3-2)CCN1C` (configuration not stated): the GI50 was 1.87 µM (inactive) in the assay with P388/ADR, 0.424 µM (active) with SN12K1 and 1.77 µM (inactive) in the assay with P388.

Consider `Cc1ccccc1-c1nc2c(C(=O)NCCN(C)C)cccc2[nH]1`, for which the GI50 in the assay on P388/ADR was 26.5 µM (inactive); in the assay with SN12K1 it was 30.5 µM (inactive); with P388, 16.3 µM (inactive).

One may read the AC50 as the concentration at which the activity in the assay is half-maximal. With `Cc1ccsc1/C=N/NC(=O)c1ccc2c(c1)OCCO2`, the AC50 in the assay on HEK293 was 7.87 µM (active). The IC50 at Coagulation factor XII is > 50 µM (inactive).
